Read-outs that look alike come from different tables or passages of the source.
Assays:
BRIN-BD11 cells [1] = type: cell-based, rat; conditions: for Insulin-releasing action in the presence of verapamil (in words): 50 μM verapamil, calcium channel blocker; for Insulin-releasing action in cells depolarised with KCl (in words): 30 mM KCl
Protocol: (§1) Culture of insulin-secreting cells: Clonal rat insulin-secreting BRIN-BD11 cells were cultured in RPMI-1640 tissue culture medium containing 10% (v/v) fetal calf serum, 1% (v/v) antibiotics (100 U/ml penicillin, 0.1 mg/ml streptomycin) and 11.1 mM glucose. The production and characterisation of BRIN-BD11 cells are described elsewhere. Cells were maintained in sterile tissue culture flasks (Corning, Glass Works, UK) at 37° C. in an atmosphere of 5% CO2 and 95% air using LEEC incubator (Laboratory Technical Engineering, Nottingham, UK). In three experimental series using purified peptides from Agalychnis calcarifer, Bombina variegata and Rana saharica cells were cultured overnight with 25 μM forskolin, 10 nM PMA or 0.1 μg/ml pertussis toxin prior to acute tests.
Acute insulin release studies: Insulin release from BRIN-BD11 cells was determined using cell monolayers [McClenaghan N H, Barnett C R, Ah-Sing E, Abdel-Wahab Y H, O'Harte F P, Yoon T W, Swanston-Flatt S K and Flatt P R 1996 Characterization of a novel glucose-responsive insulin-secreting cell line, BRIN-BD11, produced by electrofusion. Diabetes 45 1132-1140]. The cells were harvested with the aid of trypsin/EDTA (Gibco), seeded into 24-multiwell plates (Nunc, Rosklide, Denmark) at a density of […] per well, and allowed to attach overnight. Prior to acute test, cells were preincubated for 40 min at 37° C. in a 1.0 ml Krebs Ringer bicarbonate buffer (115 mM NaCl, 4.7 mM KCl, 1.28 MM CaCl2, 1.2 MM KH2PO4, 1.2 mM MgSO4, 10 mM NaHCO3, 5 g/l bovine serum albumin, pH 7.4) supplemented with 1.1 mM glucose. Test incubations were performed for 20 min at 37° C. using the same buffer supplemented with 5.6 mM glucose in the absence (control) and presence of various venom fractions, peaks (equivalent to approx. 25 μl dried HPLC fraction) or test agents as indicated in the Figures. Cell viability after 20 min test incubations was assessed by modified neutral red assay [Hunt S M, Chrzanowska C, Barnnett C R, Brand H N and Fawell J K 1987 A comparison of in vitro cytotoxicity assays and their application to water samples. Alternatives to Laboratory Animals 15 20-29]. After incubation, aliquots of buffer were removed and stored at −20° C. for insulin radiomnimmunoassay [Flatt P R. and Bailey C J 1981 Abnormal plasma glucose and insulin responses in heterozygous lean (ob/+) mice. Diabetologia 20 573-577].

BRIN-BD11 cells [2] = test: Acute insulin release from BRIN-BD11 cells cultured overnight with forskolin, PMA or pertussis toxin; type: cell-based, rat; conditions: acute test at 5.6 mM glucose; for Stimulatory effect on insulin secretion in cells cultured overnight with PMA: 10 nM PMA overnight (protein kinase C pathway); for Stimulatory effect on insulin secretion in cells cultured overnight with pertussis toxin: 0.1 μg/ml pertussis toxin overnight (G-protein pathway); for Stimulatory effect on insulin secretion in cells cultured overnight with forskolin: 25 μM forskolin overnight (desensitised cyclic AMP-protein kinase A pathway)
Protocol: FIG. 8 illustrates the dependence of the stimulatory effects of 1653.2 Da purified peptide (peak 1.10) from Agalychnis calcarifer on intracellular pathways mediated by protein kinase A (forskolin), protein kinase C (PMA) or pertussis toxin-sensitive G-proteins. Legend: Acute effects of the 13 amino acid 1653.2 Da purified peptide (peak 1.10) from Agalychnis calcarifer on forskolin and PMA on insulin secretion from BRIN-BD11 cells cultured overnight in the absence (control) and presence of 25 μM forskolin, 10 nM PMA or 0.1 μg/ml pertussis toxin. Acute incubations were performed at 5.6 mM glucose. Values are the mean ±SEM for 8 separate observations. ***P<0.001 compared with 5.6 mM glucose alone under same culture conditions. ^ΔΔΔp<0.001 compared with respective test reagent following control culture.
FIG. 9 illustrates the dependence of the stimulatory effects of 1641.7 Da, 1662.6 Da, 1619.8 Da and 1650.5 Da purified peptides (peaks 21, 22, 23 and 24) from Bombina variegata on intracellular pathways mediated by protein kinase A (forskolin), protein kinase C (PMA) or pertussis toxin-sensitive G-proteins. Legend: Acute effects of 1641.7, 1662.6, 1619.8 and 1650.5 Da purified peptides (peaks 21, 22, 23 and 24) from Bombina variegata on forskolin and PMA on insulin secretion from BRIN-BD11 cells cultured overnight in the absence (control) and presence of 25 μM forskolin, 10 nM PMA or 0.1 μg/ml pertussis toxin. Acute incubations were performed at 5.6 mM glucose. Values are the mean ±SEM for 8 separate observations. **P<0.001 compared with 5.6 mM glucose alone under same culture conditions. ^ΔP<0.001 compared with respective test reagent following control culture.
FIG. 10 illustrates the dependence of the stimulatory effects of 4920.4 Da and 4801.2 Da purified peptides (peaks 5.1 and 5.4) from Rana saharica on intracellular pathways mediated by protein kinase A (forskolin), protein kinase C (PMA) or pertussis toxin-sensitive G-proteins. Legend: Acute effects of 4920.4 and 4801.2 Da purified peptides (peaks 5.1 and 5.4) from Rana saharica on forskolin and PMA on insulin secretion from BRIN-BD11 cells cultured overnight in the absence (control) and presence of 25 μM forskolin, 10 nM PMA or […] pertussis toxin. Acute incubations were performed at 5.6 mM glucose. Values are the mean ±SEM for 8 separate observations. ***P<0.001 compared with 5.6 mM glucose alone under same culture conditions. ^ΔΔP<0.001 compared with respective test reagent following control culture.
as §1
Acute insulin release studies: Insulin release from BRIN-BD11 cells was determined using cell monolayers [McClenaghan N H, Barnett C R, Ah-Sing E, Abdel-Wahab Y H, O'Harte F P, Yoon T W, Swanston-Flatt S K and Flatt P R 1996 Characterization of a novel glucose-responsive insulin-secreting cell line, BRIN-BD11, produced by electrofusion. Diabetes 45 1132-1140]. The cells were harvested with the aid of trypsin/EDTA (Gibco), seeded into 24-multiwell plates (Nunc, Rosklide, Denmark) at a density of […] per well, and allowed to attach overnight. […]

[3] = Table 9, no addition, 5.6 mM glucose, 8 observations, control 1.69 ± 0.17
[4] = Table 9, peptide plus KCl (30 mM), 5.6 mM glucose, 8 observations
[5] = Table 9, peptide plus verapamil (50 μM), 5.6 mM glucose, 8 observations

Substance | Insulin release (ng/10^6 cells/20 mins) (BRIN-BD11 cells [1]) | Insulin-releasing action in the presence of verapamil (in words) (BRIN-BD11 cells [1]) | Insulin-releasing action in cells depolarised with KCl (in words) (BRIN-BD11 cells [1]) | Insulin secretion (ng/10^6 cells/20 min) (BRIN-BD11 cells [1]; [3]) | Insulin secretion (ng/10^6 cells/20 min) (BRIN-BD11 cells [1]; [4]) | Insulin secretion (ng/10^6 cells/20 min) (BRIN-BD11 cells [1]; [5]) | Stimulatory effect on insulin secretion in cells cultured overnight with PMA (BRIN-BD11 cells [2]) | Stimulatory effect on insulin secretion in cells cultured overnight with pertussis toxin (BRIN-BD11 cells [2]) | Stimulatory effect on insulin secretion in cells cultured overnight with forskolin (BRIN-BD11 cells [2]) | Insulin secretion (ng/10^6 cells/20 min) (BRIN-BD11 cells [1]; Table 8, no addition, 5.6 mM glucose, control 1.68 ± 0.16) | Insulin secretion (ng/10^6 cells/20 min) (BRIN-BD11 cells [1]; Table 8, peptide plus KCl (30 mM), 5.6 mM glucose) | Insulin secretion (ng/10^6 cells/20 min) (BRIN-BD11 cells [1]; Table 8, peptide plus verapamil (50 μM), 5.6 mM glucose) | Insulin release (ng/10^6 cells/20 mins) (BRIN-BD11 cells [1]; peptides from Agalychnis calcarifer, 5.6 mM glucose, no-peptide control 1.71 ± 0.12)
Pyr-DSFGNQWARGHFM-amidated (HELM PEPTIDE1{[Glp].D.S.F.G.N.Q.W.A.R.G.H.F.M.[am]}$$$$V2.0; SMILES CSCC[C@H](NC(=O)[C@H](Cc1ccccc1)NC(=O)[C@H](Cc1c[nH]cn1)NC(=O)CNC(=O)[C@H](CCCNC(=N)N)NC(=O)[C@H](C)NC(=O)[C@H](Cc1c[nH]c2ccccc12)NC(=O)[C@H](CCC(N)=O)NC(=O)[C@H](CC(N)=O)NC(=O)CNC(=O)[C@H](Cc1ccccc1)NC(=O)[C@H](CO)NC(=O)[C@H](CC(=O)O)NC(=O)[C@@H]1CCC(=O)N1)C(N)=O) [Peptide 22, peptide from Bombina variegata, 72% ID to bombesin] | 4.75 ± 0.13 | not affected | clearly evident | 3.23 ± 0.14 | 13.69 ± 1.43ΔΔΔ*** ng/10^6 cells/20 min | 3.05 ± 0.09 | did not affect | did not affect | abolished | – | – | – | –
Pyr-QRLGHQWAVGHLM-amidated (N-terminal pyroglutamate, C-terminal amide) [Peptide 21, peptide from Bombina variegata, (His)^6Bombesin, 93% ID to bombesin] | 4.66 ± 0.24 | not affected | clearly evident | 3.65 ± 0.05 | 13.68 ± 1.42ΔΔΔ*** ng/10^6 cells/20 min | 4.25 ± 0.82 | did not affect | did not affect | abolished | – | – | – | –
RRKPLFPFIPRPK [Peptide 1.10, 13 amino acid 1653.2 Da purified peptide from Agalychnis calcarifer] | – | not affected | clearly evident | – | – | – | did not affect | did not affect | abolished | 2.75 ± 0.12 | 16.45 ± 0.10 ΔΔ*** ng/10^6 cells/20 min | 3.54 ± 0.20 ΔΔ*** ng/10^6 cells/20 min | 2.61 ± 0.11
